{"source": "patent US20100317577A1", "about": "“Methods and Compositions for Inhibiting Cell Death or Enhacing Cell Proliferation” (Department of Health and Human Services, priority 2005, published 2010)", "key": {"[1]": {"system": "caspase 3/7", "test": "Caspase 3/7 activity in HL-60 cells with staurosporine", "assay_type": "cell-based, human", "details": "HL-60, staurosporine"}, "[2]": {"system": "Peripheral blood mononuclear cell (PBMC)", "assay_type": "cell-based, human"}, "[3]": {"system": "CD34^+ cells"}, "[4]": {"system": "caspase 3/7", "test": "Caspase 3/7 activity in monocytes treated with cytotoxic drugs", "assay_type": "cell-based, human"}, "[5]": {"system": "HL-60 cells", "details": "for effect on staurosporine cytotoxicity (cell number): chimera at forty-eight hours"}, "[6]": {"test": "Protease sensitivity during expression in Pichia pastoris", "details": "high concentrations of protease inhibitors", "protocol": "In Pichia, GM-CSF-Bcl-XL was expressed intracellularly. The expression was monitored by Western blot.\nThe cells were harvested by centrifugation at 5,000 g, and, washed with binding buffer (5 mM imidazole, 20 mM Tris/Cl pH 7.9, 0.5M NaCl) containing 2 protease inhibitor tablets, COMPLETE PROTEASE INHIBITOR COCKTAIL EDTA-free (Roche Diagnostics, Indianapolis, Ind.),/50 ml of buffer. Cells were lysed by adding 100 g of acid washed glass beads (0.5 g of beads/ml of initial culture) with 1 cycle of 5 minutes, frequency 30 Hz, in a mixer mill (Retsch MM200, Haan, Del.). The cellular debris were eliminated by centrifugation at 18,000 g, 5 minutes at 4° C."}}, "data": [{"compound": "CN[C@@H]1C[C@H]2O[C@@](C)([C@@H]1OC)n1c3ccccc3c3c4c(c5c6ccccc6n2c5c31)C(=O)NC4", "note": "[staurosporine, reference compound]", "values": [{"measurement": "effect on caspase activity / apoptosis", "setting": "[1]", "value": "induced apoptosis at the highest levels"}]}, {"compound": "GM-CSF-Bcl-XL: chimeric protein: human GM-CSF fused via glycine-serine-threonine linker to full length human Bcl-XL, N-terminal His tag, expressed in E. coli (SEQ ID NO:1)", "values": [{"measurement": "protection of PBMC from kinase inhibitors / apoptosis", "setting": "[2]", "value": "protected PBMC from both kinase inhibitors in a dose dependent manner"}, {"measurement": "increase in cell viability in the presence of AG409", "setting": "[2]; 0.24 µM", "value": 30, "unit": "%"}, {"measurement": "increase in cell viability in the presence of staurosporine", "setting": "[2]; 0.24 µM", "value": 50, "unit": "%"}, {"measurement": "protection of colonies in the presence of cytarabine", "setting": "[3]; CD34+ cells, cytarabine", "value": "selectively protected the CFU-GM colonies relative to BFU-E"}, {"measurement": "colonies under cytokine deprivation", "setting": "[3]; CD34+ cells, essential medium, no growth factor/cytokines", "value": "protected myeloid precursors from cytokine deprivation"}, {"measurement": "effect on number of colonies", "setting": "[3]; CD34+ cells, supplemented medium (SCF, erythropoietin, cytokines)", "value": "two-fold"}, {"measurement": "inhibition of caspase 3/7 activity compared with GM-CSF at the same concentration", "setting": "[4]", "value": "more effective"}, {"measurement": "reduction of caspase activity", "setting": "[4]; monocytes, 2.4 μM, cytotoxic drugs", "value": "more than 50%"}, {"measurement": "time of maximum effect on proliferation", "setting": "[5]; HL-60", "value": 48, "unit": "h"}, {"measurement": "proliferation activity higher than in cells treated with the same molar amount of GM-CSF", "setting": "[5]; HL-60, 48 hours", "value": 30, "unit": "%"}, {"measurement": "duration of protection from staurosporine", "setting": "[5]; HL-60, staurosporine", "value": "at least seventy-two hours"}, {"measurement": "effect on staurosporine cytotoxicity (cell number)", "setting": "[5]; HL-60, staurosporine", "value": "approximately the same number of cells as control cultures without staurosporine"}, {"measurement": "reduction in cell death", "setting": "[5]; HL-60, with staurosporine, seventy-two hours, versus control", "value": 30, "unit": "%"}, {"measurement": "cells that had died", "setting": "[5]; HL-60, with staurosporine, seventy-two hours, 50% of control cells had died", "value": 20, "unit": "%"}, {"measurement": "sensitivity to proteolysis", "setting": "[6]", "value": "very sensitive to proteolysis"}]}, {"compound": "Nc1ccn([C@@H]2O[C@H](CO)[C@@H](O)[C@@H]2O)c(=O)n1", "note": "[cytarabine, reference compound]", "values": [{"measurement": "effect on growth of CFU-GM and BFU-E colonies", "setting": "[3]", "value": "drastically impaired"}]}, {"compound": "GM-CSF: human granulocyte-macrophage colony-stimulating factor, a cytokine", "values": [{"measurement": "prosurvival activity in the presence of AG 490", "setting": "[2]", "value": "completely inhibited"}, {"measurement": "prosurvival activity in the presence of staurosporine", "setting": "[2]", "value": "largely inhibited"}, {"measurement": "effect on staurosporine cytotoxicity (cell number)", "setting": "[5]; HL-60, staurosporine", "value": "not able to block the cytotoxic effect of staurosporine"}, {"measurement": "effect on caspase activity / apoptosis", "setting": "[1]", "value": "reduced"}]}]}
